A short description of data set [1]: Behaviour of TSC under acidic conditions (stomach). The format is physicochemical. From the text:
TSC is precipitated under acidic conditions, such as those which exist in the stomach. […] TSC is not stable in acidic conditions and will be converted to the cis isomer which can precipitate. A system has been devised that will protect TSC in the harsh, acidic environment of the stomach and release TSC in a more favorable pH region. A more favorable pH does exist in the small intestines. […] See Examples below. TSC's effectiveness is believed to be dependant on the TSC concentrations levels found in the body. The effectiveness of TSC can be prolonged by administering TSC orally. […] TSC must be protected from the harsh environment of the stomach and be release in a more favorable, higher pH region of the small intestine. For this study, tablets of TSC were made (Table 1) and were enterically coated with either Eudragit L100 or cellulose acetate phthalate (CAP). The integrity of both types of protective coatings were confirmed in a USP dissolution study in which enterically coated tablets were first place in a dissolution cell containing simulated gastric fluid (SGF), then transferred to another cell containing simulated intestinal fluid (SIF). […] This study was performed according to USP protocols.

A short description of data set [2]: Intestinal (jejunum) absorption of TSC and effect of gamma cyclodextrin. The conditions noted are these: rat jejunum; approx. 60 mg/kg TSC; TSC:gamma cyclodextrin 0.5:1 up to 4:1 (wt:wt); FIG. 2. The data set is classed as in vivo. On the procedure:
Male Sprague-Dawley (SD) and Wistar rats weighing approximately 300-400 g each were fasted for 24 hours prior to each experiment. Water was given ad libitum and coprophagy was prevented by using cages with wire-mesh floors. Anesthesia was induced and maintained with isoflurane. The carotid artery was exposed and cannulated with PE-50 tubing. The cannula was secured using silk sutures and 2% lidocaine was applied to the wound.
Following cannulation, a front midline […] was made, exposing the abdomen and intestinal segments. In this study, the jejunum was isolated and the TSC formulation was administered in the proximal jejunum. Approximately 60 mg/kg TSC was administered at various gamma cyclodextrin ratios of 0.5:1 up to 4:1 (wt. TSC:wt. gamma cyclodextrin). Movement of TSC within the intestinal segments was not restricted distal to the site of administration. The intestine was replaced and the abdomen closed with sutures. Approximately 0.3 mL blood samples were taken for the carotid artery at discrete time intervals following TSC administration. A small amount of sodium heparin was used as an anticoagulant. The blood samples were centrifuged and the resulting plasma volume mixed with 3 volumes of methanol and vortexed. The plasma mixture was then centrifuged and the supernatant was analyzed by HPLC to determine TSC levels.

A short description of data set [3]: Scalability for Cmax: TSC with gamma cyclodextrin 1:1 in jejunum. The format is in vivo. The note with it: rat jejunum; 2.5, 5, 10 and 60 mg/kg TSC; TSC:gamma cyclodextrin 1:1; FIG. 4. On the procedure: The dosage of TSC used in the above study is large, therefore, additional doses of TSC were administered with gamma cyclodextrin at a ratio of 1:1 (wt. TSC:wt. gamma cyclodextrin) in order to determine the scalability of systemic absorption (in terms of Cmax) with respect to TSC dosing amount. For the following study, TSC was administered to the jejunum intestinal segment at the following dosages: 2.5, 5, 10, and 60 mg/kg.
For this study, male Sprague-Dawley (SD) and Wistar rats weighing approximately 300-400 g each were fasted for 24 hours prior to each experiment. Water was given ad libitum and coprophagy was prevented by using cages with wire-mesh floors. Anesthesia was induced and maintained with isoflurane. The carotid artery was exposed and cannulated with PE-50 tubing. The cannula was secured using silk sutures and 2% lidocaine was applied to the wound.
Following cannulation, a front midline […] was made, exposing the abdomen and intestinal segments. In this study, the jejunum was isolated and the TSC formulation was administered in the proximal jejunum. Movement of TSC within the intestinal segments was not restricted distal to the site of administration. The intestine was replaced and the abdomen closed with sutures. […] The plasma mixture was then centrifuged and the supernatant was analyzed by HPLC to determine TSC levels.

Data set [4] concerns neurons. Kind of data set: Rat model of hemorrhagic stroke (collagenase), neuronal death. The format is in vivo. The conditions noted are these: TSC injected starting 3 hours after collagenase, sacrifice at 48 hours. How it is done: The first study in which this was done was one conducted using a rat model of hemorrhagic stroke. […] TSC was then injected starting 3 hours after the collagenase was administered, and the animals were sacrificed 48 hours after the administration of the collagenase.
When there is a hemorrhage in the brain, the blood pools and forms a hematoma. Around the periphery of this hematoma, there is a death of neuronal cells. […] Use of the stain, fluorojade, allows one to count the numbers of “dead” neurons in a given brain section of the brain. This was done in the area around the hematomas formed in the hemorrhagic stroke rat model.

Data set [5] deals with neurons. Kind of data set: Rat model of Parkinson's disease (6-OHDA), pretreatment, live neuron counts. The data set is classed as in vivo. The conditions noted are these: TSC 0.1 mg/kg for 7 days preceding 10 μg 6-OHDA; sacrifice 4 weeks later; FIG. 8. On the procedure:
Another model that was used examined the effect of TSC on neuronal viability is a rat model of Parkinson's disease. In this model, a burr hole is drilled through the skull and into the region of the substantia nigra. The Parkinson's-like condition is induced by injecting 6-hydroxydopamine (6-OHDA) into the brain. An amount of 10 μg of 6-OHDA is frequently injected in this model, and was used in the first study.
In the study, TSC was injected at a dosage of 0.1 mg/kg for 7 days preceding the injection of the 6-OHDA (the same dosing regimen as had been done in the crocetin study). Following the injection of the 6-OHDA, no further treatments were given over the next 4 weeks.
At that time the rats were sacrificed and the brains removed and sent to Charles River Laboratories for counts of live neurons. […] This allowed the comparison of cell death (treated side count/untreated side count) of the controls, which had been pretreated with saline, to the animals pretreated with TSC.

Data set [6] deals with neurons. The data set is described as follows: Rat model of Parkinson's disease (6-OHDA), post-treatment, live neuron counts. The format is in vivo. On the procedure:
It is of much more interest to know the effect of post-treatment on neuronal death following the injection of 6-OHDA. To investigate that, 5 μg of 6-OHDA were again injected into the substantia nigra as before, but the treatment began following that injection. The animals were then given daily injections of TSC (0.25 mg/kg) for 4 weeks before sacrifice. The brains were removed and sent to Charles River Laboratories for neuronal counts.

The subject of data set [7] is B16 (mouse melanoma) cells. Kind of data set: Pulmonary metastasis mouse model, B16 tumor counts in lungs. The format is in vivo. The source says: The pulmonary metastasis mouse model is a widely used model for the evaluation of tumor therapy. With B16 (mouse melanoma) cells, essentially all cells “take” upon intravenous cell injection in the tail vein, and the tumors are preferentially formed in the lungs. Thus, the term pulmonary metastasis is widely used even though every resulting pulmonary nodule is technically an independent “primary” tumor rather than a true metastasis.
There is always a fraction of nodules that is amelanotic (“white”) though, and this requires careful counting in order not to underestimate the tumor burden.
For the subject studies, eight-week-old female C57BL/6 mice were obtained from Charles River Laboratories. The mice were housed in groups of 5 or fewer, and received food and water ab libitum.
B16 cells were cultured by the Center for Cell Signaling of the University of Virginia using a standard protocol. The cells were received while they were in an exponential growth phase. The cells were supplied at a concentration of 5×10^5 cells/mL in Hank's buffered salt solution (HBSS).
The cells were injected immediately upon receipt, and this day was designated as Day 0. On Day 0, all of the mice were injected intravenously in the tail vein with 0.1 mL of the cell suspension, meaning that each mouse received 0.5×10^5 cells. The mice were then left alone until Day 4.
On Day 4, the mice were divided into two groups: Group A, consisting of 5 mice, received an intravenous injection of 0.05 mL of saline in the tail vein. Group B, composed of 7 mice, received an intravenous injection of 0.05 mL of a TSC solution in the tail vein, for a TSC dosage of 0.142 mg/kg/day. The same injections were repeated on Days 5-8 and on Days 11-15. On Day 18, the mice were sacrificed using carbon dioxide. The lungs were excised, rinsed and placed in Fekete's Solution and stored at room temperature.
Later, the lungs were assessed visually, in random, blinded order, to obtain a visual count of the numbers of tumors. […] Thus, the tumors were counted visually in two separate groups: small tumors and medium/large tumors. Although the majority of the tumors were black, there were also some white tumors.

Data set [8] deals with neurons. The note with it: study found in the literature; crocetin pretreatment; cited from earlier work.
[9] abbreviates: C57BL/6 mice lungs Day 18, TSC 0.142 mg/kg/day iv, N 7.
[10] abbreviates: mean±standard deviation, C57BL/6 mice lungs Day 18, TSC 0.142 mg/kg/day iv, N 7.

The structures appear in SMILES notation.

Regarding `CC(/C=C/C=C(\C)C(=O)[O-])=C\C=C\C=C(C)\C=C\C=C(/C)C(=O)[O-].[Na+].[Na+]` [TSC, trans sodium crocetinate], the “solubility in the acidic environment of the stomach” value in data set [1] (TSC is precipitated) is “practically insoluble”. Besides, the “stability in acidic conditions” value in data set [1] (converted to the cis isomer) is on record as “not stable”. Also, the “effect of γ-cyclodextrin on absorption of TSC” value in data set [2] was “greatly enhances”. Moreover, in data set [3], the “linear regression of Cmax versus TSC dosage” value was “excellent fit”. For the same compound, the “less death of the neurons around the periphery of the hematoma” value with neurons [4] is on record as “about 20%”. Also, the “less neuronal death, fluorojade count of dead neurons around the hematomas” value in the data set with neurons [4] (FIG. 7) is reported as “approximately 30%”. In addition, in the data set on neurons [5], the “percentage of live neurons (treated side count/untreated side count) vs saline controls” value is given as “approximately doubled”. Also, in the data set with neurons [6] (5 μg 6-OHDA, daily TSC 0.25 mg/kg for 4 weeks after injection, p<0.05, FIG. 9), the “more live neurons vs saline” value is recorded as “about 20%”. In addition, the “effect on viability of live neurons, non-6-OHDA side of the brain” value with neurons [6] (daily TSC 0.25 mg/kg for 4 weeks vs saline, FIG. 10) is recorded as “no effect”. The compound further came in with a Small tumors med. in data set [7] (C57BL/6 mice lungs Day 18, TSC 0.142 mg/kg/day iv Days 4-8 and 11-15, N 7) of 18. In addition, in data set [7] (setting [9]), the Medium/Large tumors med. was 19 and the Total tumors med. is 34. Further, the “statistical difference of tumor counts, TSC group vs saline group” value in data set [7] (Day 18, large standard deviations) is recorded as “not statistically different”. Besides, in data set [7] (setting [10]), the Medium/Large tumors mean worked out at 30 ± 24, the Small tumors mean came to 32 ± 29 and the Total tumors mean is 62 ± 53.

Turning to `CC(/C=C/C=C(\C)C(=O)O)=C\C=C\C=C(C)\C=C\C=C(/C)C(=O)O` [crocetin], the “effect of pretreatment on neuronal death following 10 μg 6-OHDA” value in the data set on neurons [8] is reported as “beneficial effect”.

Source of the values: patent publication US11491129B2, “Oral formulations of bipolar trans carotenoids” (priority 2010, dated 2022).
